For the experiment, the system named is L1210 leukemia ip in BDF1 mice, survival T/C. Description: NCI In Vivo Anticancer Drug Screen. Data for tumor model L1210 Leukemia (intraperitoneal) in B6D2F1 (BDF1) mice. Particulars: endpoint: mean survival time, higher = longer survival. In outline:
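Transplanted-tumor mice were given test agent; controls received vehicle only. Survival readings from the two groups were divided (treated over control).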

The mark [1] stands for this setting: dose: 100.0 mg/kg/injection, schedule: Q01DX009 (ip), vehicle: Klucel (hydroxypropylcellulose) (HPC).
Setting [2] is: dose: 100.0 mg/kg/injection, schedule: Q01DX001 (ip), vehicle: other.
The mark [3] stands for this setting: dose: 200.0 mg/kg/injection, schedule: Q01DX001 (ip), vehicle: other.
[4] abbreviates: dose: 400.0 mg/kg/injection, schedule: Q01DX001 (ip), vehicle: other.
[5] abbreviates: dose: 50.0 mg/kg/injection, schedule: Q01DX001 (ip), vehicle: saline.
Setting [6] is: dose: 100.0 mg/kg/injection, schedule: Q01DX001 (ip), vehicle: saline.
The mark [7] stands for this setting: dose: 200.0 mg/kg/injection, schedule: Q01DX001 (ip), vehicle: saline.
Setting [8] is: dose: 50.0 mg/kg/injection, schedule: Q01DX009 (ip), vehicle: saline with Tween-80.
Setting [9] is: dose: 100.0 mg/kg/injection, schedule: Q01DX009 (ip), vehicle: saline with Tween-80.
[10] abbreviates: dose: 100.0 mg/kg/injection, schedule: Q04DX002 (ip), vehicle: Klucel (hydroxypropylcellulose) (HPC).
[11] abbreviates: dose: 200.0 mg/kg/injection, schedule: Q04DX002 (ip), vehicle: Klucel (hydroxypropylcellulose) (HPC).
Where [12] appears, read: dose: 50.0 mg/kg/injection, schedule: Q01DX009 (ip), vehicle: Klucel (hydroxypropylcellulose) (HPC).
The mark [13] stands for this setting: dose: 200.0 mg/kg/injection, schedule: Q01DX009 (ip), vehicle: saline with Tween-80.
Setting [14] is: dose: 400.0 mg/kg/injection, schedule: Q01DX009 (ip), vehicle: saline with Tween-80.
[15] abbreviates: dose: 100.0 mg/kg/injection, schedule: Q04DX003 (ip), vehicle: saline with Tween-80.
[16] abbreviates: dose: 200.0 mg/kg/injection, schedule: Q04DX003 (ip), vehicle: saline with Tween-80.
[17] abbreviates: dose: 400.0 mg/kg/injection, schedule: Q04DX003 (ip), vehicle: saline with Tween-80.
The mark [18] stands for this setting: dose: 400.0 mg/kg/injection, schedule: Q01DX001 (ip), vehicle: saline.

In PubChem BioAssay AID248 (DTP/NCI, 2004) one finds T/C data, which are given here for 22 compounds.

Values joined by “and” are separate entries in the source; they are usually repeats but may differ in a detail not shown here. Identical values can stand only once. Toxic doses and inconclusive results are not listed.

Regarding `Cl/C(=N\Nc1ccccc1)c1ccccc1`, the T/C is 100 % of control (dose: 3.52 mg/kg/injection, schedule: Q01DX009 (ip), vehicle: saline sonified); 105 % of control (dose: 5.28 mg/kg/injection, schedule: Q01DX009 (ip), vehicle: saline sonified); 98 % of control (dose: 7.5 mg/kg/injection, schedule: Q01DX001 (ip), vehicle: Klucel (hydroxypropylcellulose) (HPC)); 100 % of control (dose: 8.0 mg/kg/injection, schedule: Q01DX009 (ip), vehicle: saline sonified); 108 % of control (dose: 12.0 mg/kg/injection, schedule: Q01DX009 (ip), vehicle: saline sonified); 105 % of control (dose: 15.0 mg/kg/injection, schedule: Q01DX001 (ip), vehicle: Klucel (hydroxypropylcellulose) (HPC)). The T/C was 111 % of control (dose: 15.0 mg/kg/injection, schedule: Q01DX009 (ip), vehicle: saline sonified); 105 % of control (dose: 30.0 mg/kg/injection, schedule: Q01DX001 (ip), vehicle: Klucel (hydroxypropylcellulose) (HPC)); 118 % of control (dose: 30.0 mg/kg/injection, schedule: Q01DX009 (ip), vehicle: saline sonified).

For the compound `CCOc1ccc(NC(=O)C(Br)C(Br)C(=O)O)cc1` (stereo not drawn), the T/C by setting is: under setting [1], 94 % of control; (dose: 200.0 mg/kg/injection, schedule: Q01DX009 (ip), vehicle: Klucel (hydroxypropylcellulose) (HPC)) 98 % of control; (dose: 400.0 mg/kg/injection, schedule: Q01DX009 (ip), vehicle: Klucel (hydroxypropylcellulose) (HPC)) 100 % of control.

On to `CC(=O)C(Cl)C(C)=O.CC(=O)CC(C)=O.CC(=O)CC(C)=O.[Rh]`, for which the T/C is 108 % of control (dose: 50.0 mg/kg/injection, schedule: Q01DX001 (ip), vehicle: other); 102 % of control under setting [2]; 98 % of control under setting [3]; 98 % of control under setting [4].

As to `Nc1nnc2c(n1)[nH]c1ccccc12`, the T/C is 96 % of control under setting [5], 100 % of control under setting [6] and 93 % of control under setting [7].

Take `O=c1oc2ccc(N=Cc3ccc4c(c3)OCO4)cc2c2ccccc12`: the T/C runs as follows: under setting [2], 91 % of control; under setting [3], 93 % of control; under setting [4], 93 % of control.

Consider `CCN(CC)CCCCCCn1c2ccccc2c2c(C)c3cnccc3c(C)c21`, for which the T/C (dose: 25.0 mg/kg/injection, schedule: Q01DX009 (ip), vehicle: saline with Tween-80) is 108 % of control; the T/C under setting [8] is 102 % of control; the T/C under setting [9] was 105 % of control.

With `c1ccc(Cc2nnc(Cc3ccccc3)nn2)cc1`, the T/C reads like this: under setting [10], 91 % of control; under setting [11], 102 % of control; (dose: 400.0 mg/kg/injection, schedule: Q04DX002 (ip), vehicle: Klucel (hydroxypropylcellulose) (HPC)) 105 % of control.

With `CSc1nc(N)cc(NC(=O)CCl)n1`, the T/C is 101 % of control under setting [12]; 102 % of control under setting [1]; 92 % of control (dose: 100.0 mg/kg/injection, schedule: Q04DX003 (ip), vehicle: Klucel (hydroxypropylcellulose) (HPC)); 92 % of control (dose: 200.0 mg/kg/injection, schedule: Q04DX003 (ip), vehicle: Klucel (hydroxypropylcellulose) (HPC)).

Take `O=C(Nc1ccccc1F)C(Cl)(Cl)Cl`: the T/C under setting [10] is 104 % of control and the T/C under setting [11] is 104 % of control.

For the compound `CCCC(=O)C(CCN(C)C)c1ccccn1` (stereo not drawn), the T/C was 94 % of control (dose: 44.0 mg/kg/injection, schedule: Q01DX Z (ip), vehicle: methylcellulose (MC)) and 107 % of control (dose: 66.0 mg/kg/injection, schedule: Q01DX Z (ip), vehicle: methylcellulose (MC)).

In the case of `c1ccc2c(c1)Sc1cnccc1N2CC1CO1` (stereo not drawn), the T/C was 96 % of control (dose: 100.0 mg/kg/injection, schedule: Q04DX003 (ip), vehicle: saline); 92 % of control (dose: 200.0 mg/kg/injection, schedule: Q04DX003 (ip), vehicle: saline); 96 % of control (dose: 400.0 mg/kg/injection, schedule: Q04DX003 (ip), vehicle: saline).

For `COc1cc(Oc2ccc(OC)c(OC)c2)c(C=O)cc1Br`, the T/C (dose: 100.0 mg/kg/injection, schedule: Q04DX003 (ip), vehicle: acetone) was 96 % of control; the T/C (dose: 200.0 mg/kg/injection, schedule: Q04DX003 (ip), vehicle: acetone) was 97 % of control; the T/C (dose: 400.0 mg/kg/injection, schedule: Q04DX003 (ip), vehicle: acetone) is 97 % of control.

Turning to `COc1ccc(C(=O)CC(C#N)c2ccc(OC)c(OC)c2)cc1OC` (stereo not drawn), the T/C under setting [9] was 100 % of control, the T/C under setting [13] was 96 % of control and the T/C under setting [14] is 100 % of control.

In the case of `Cc1ccc([N+](=O)[O-])cc1NC(=O)SCCOC(=O)COc1ccc(Cl)cc1Cl`, the T/C was 94 % of control under setting [9]; 93 % of control under setting [15]; 94 % of control under setting [13]; 98 % of control under setting [16]; 105 % of control under setting [14]; 89 % of control under setting [17].

Regarding `O=NN(CCCl)C(=O)N[C@@H]1CCCC[C@H]1NC(=O)N(CCCl)N=O`, the T/C (dose: 25.0 mg/kg/injection, schedule: Q01DX001 (ip), vehicle: carboxymethylcellulose (CMC)) is 180 % of control; the T/C (dose: 37.5 mg/kg/injection, schedule: Q01DX001 (ip), vehicle: carboxymethylcellulose (CMC)) is 165 % of control; the T/C (dose: 50.0 mg/kg/injection, schedule: Q01DX001 (ip), vehicle: carboxymethylcellulose (CMC)) was 215 % of control; the T/C (dose: 75.0 mg/kg/injection, schedule: Q01DX001 (ip), vehicle: carboxymethylcellulose (CMC)) is 260 % of control; the T/C under setting [6] was 233 % of control; the T/C (dose: 150.0 mg/kg/injection, schedule: Q01DX001 (ip), vehicle: carboxymethylcellulose (CMC)) is 308 % of control. In addition, the T/C is 106 % of control under setting [7] and 89 % of control (dose: 300.0 mg/kg/injection, schedule: Q01DX001 (ip), vehicle: saline).

In the case of `CC(=O)OCC1OC(n2cnc(N)c2C#N)C(OC(C)=O)C1OC(C)=O` (stereo not drawn), the T/C under setting [5] was 98 % of control, the T/C under setting [6] was 102 % of control, the T/C under setting [7] was 102 % of control and the T/C under setting [18] was 102 % of control.

As for `CCOC(=O)C(=NNc1cccc(Br)c1)C(=O)OCC`, the T/C is 98 % of control under setting [6], 94 % of control under setting [7] and 96 % of control under setting [18].

Turning to `CCOC(=O)c1cc2c3n(c1=O)CCCC3C(c1ccncc1)OC2=O` (stereo not drawn), the T/C reads like this: (dose: 75.0 mg/kg/injection, schedule: Q04DX003 (ip), vehicle: saline) 95 % of control; (dose: 150.0 mg/kg/injection, schedule: Q04DX003 (ip), vehicle: saline) 100 % of control; (dose: 300.0 mg/kg/injection, schedule: Q04DX003 (ip), vehicle: saline) 95 % of control.

Regarding `O=C(NC1CCCC1O)c1ccccc1` (stereo not drawn), the T/C is 95 % of control under setting [8], 95 % of control under setting [9] and 98 % of control under setting [13].

Turning to `CC(C)N(C(=O)CSc1c(Cl)c(Cl)c(Cl)c(Cl)c1Cl)C(C)C`, the T/C was 107 % of control and 113 % of control (dose: 100.0 mg/kg/injection, schedule: Q04DX002 (ip), vehicle: other); 89 % of control and 91 % of control (dose: 100.0 mg/kg/injection, schedule: Q04DX003 (ip), vehicle: other); 95 % of control and 106 % of control (dose: 200.0 mg/kg/injection, schedule: Q04DX002 (ip), vehicle: other); 96 % of control and 91 % of control (dose: 200.0 mg/kg/injection, schedule: Q04DX003 (ip), vehicle: other); 94 % of control (dose: 400.0 mg/kg/injection, schedule: Q04DX003 (ip), vehicle: other).

With `N=C(N(O)C(=O)Nc1ccccc1)C(Cl)(Cl)Cl`, the T/C is, setting by setting: (dose: 25.0 mg/kg/injection, schedule: Q01DX009 (ip), vehicle: Klucel (hydroxypropylcellulose) (HPC)) 98 % of control; under setting [12], 100 % of control; under setting [1], 104 % of control and 105 % of control.

As for `CCNC(=O)C1C2C=CC(C2)C1C(=O)NCC` (stereo not drawn), the T/C was 91 % of control under setting [15], 96 % of control under setting [16] and 87 % of control under setting [17].
